Data as given in ChEMBL document CHEMBL6178006, “Novel Spirocyclic WRN Helicase Inhibitors for Treating Cancer” (ACS Med Chem Lett, 2025).

Target: Bifunctional 3'-5' exonuclease/ATP-dependent helicase WRN (Homo sapiens, UniProt Q14191)
Assay: Inhibition of WRN helicase (500 to 942 residues)(unknown origin) using fluor/quencher-labeled forked double-stranded DNA substrate assessed as decrease in helicase unwinding activity preincubated for 1 hr followed by substrate addition measured after 1 hr in presence of ATP by fluorescence based assay

Sequence of Bifunctional 3'-5' exonuclease/ATP-dependent helicase WRN (Q14191 whole entry, the tested form may be a part): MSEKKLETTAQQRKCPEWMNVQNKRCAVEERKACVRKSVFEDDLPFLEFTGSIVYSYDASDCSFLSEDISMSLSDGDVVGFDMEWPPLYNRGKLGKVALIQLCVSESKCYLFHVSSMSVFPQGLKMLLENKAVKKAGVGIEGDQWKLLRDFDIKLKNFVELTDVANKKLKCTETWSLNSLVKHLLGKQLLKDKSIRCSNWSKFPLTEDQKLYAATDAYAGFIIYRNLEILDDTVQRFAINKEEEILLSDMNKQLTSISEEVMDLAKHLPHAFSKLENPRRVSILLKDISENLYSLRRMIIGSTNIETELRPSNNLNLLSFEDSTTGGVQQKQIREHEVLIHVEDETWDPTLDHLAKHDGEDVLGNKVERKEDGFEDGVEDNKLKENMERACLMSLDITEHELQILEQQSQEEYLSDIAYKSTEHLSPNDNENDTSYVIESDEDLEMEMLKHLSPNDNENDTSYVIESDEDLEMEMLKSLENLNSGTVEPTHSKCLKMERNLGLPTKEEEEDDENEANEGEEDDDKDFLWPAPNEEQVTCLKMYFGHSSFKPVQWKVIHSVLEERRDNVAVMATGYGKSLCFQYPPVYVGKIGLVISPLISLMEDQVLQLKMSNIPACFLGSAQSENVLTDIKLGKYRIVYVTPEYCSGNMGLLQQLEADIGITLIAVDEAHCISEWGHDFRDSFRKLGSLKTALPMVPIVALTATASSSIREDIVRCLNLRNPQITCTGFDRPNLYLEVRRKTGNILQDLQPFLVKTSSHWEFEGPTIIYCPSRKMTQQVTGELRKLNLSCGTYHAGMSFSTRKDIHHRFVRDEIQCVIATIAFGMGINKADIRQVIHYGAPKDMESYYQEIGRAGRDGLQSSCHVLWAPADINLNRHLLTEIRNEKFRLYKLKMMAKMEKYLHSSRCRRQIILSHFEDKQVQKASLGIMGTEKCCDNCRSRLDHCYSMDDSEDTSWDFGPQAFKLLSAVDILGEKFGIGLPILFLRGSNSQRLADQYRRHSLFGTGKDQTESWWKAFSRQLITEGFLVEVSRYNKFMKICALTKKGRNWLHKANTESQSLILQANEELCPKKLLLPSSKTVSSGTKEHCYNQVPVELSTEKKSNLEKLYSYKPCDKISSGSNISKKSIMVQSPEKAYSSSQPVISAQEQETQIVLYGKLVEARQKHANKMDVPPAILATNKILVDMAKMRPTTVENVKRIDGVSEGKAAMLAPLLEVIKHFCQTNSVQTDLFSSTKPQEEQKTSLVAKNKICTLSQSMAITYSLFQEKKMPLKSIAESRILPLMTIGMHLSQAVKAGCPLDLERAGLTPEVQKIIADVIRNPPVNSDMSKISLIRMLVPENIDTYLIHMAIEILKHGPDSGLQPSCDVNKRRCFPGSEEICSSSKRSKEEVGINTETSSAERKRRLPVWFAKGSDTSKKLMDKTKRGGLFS

Row | IC50 [nM] | Structure (SMILES)
1 | 1.9 | CC1CC2(CCN(C(=O)c3ncccc3O)CC2)c2c1n(CC(=O)Nc1ccc(C(F)(F)F)cc1)c1nc(C3=CCOCC3)nn1c2=O (configuration not stated)
2 | 2 | CC(=O)N1CC=C(c2nc3n(CC(=O)Nc4ccc(C(F)(F)F)cc4Cl)c4c(c(=O)n3n2)C2(CCN(C(=O)c3ncccc3O)CC2)CC4C)CC1 (configuration not stated)
